# Counter-ions that a name gives are not always drawn. Like-named read-outs stand apart in the source and are kept apart here.
# Key:
# [1] = Bioavailability and pharmacokinetics in normal rats; format: in vivo, rat; conditions: for AUC / Cmax / MRT / half-life / bioavailability / clearance / Vd: female, CD; for AUC / Cmax / MRT / half-life / bioavailability: rat, plasma; for AUC / Cmax / MRT / half-life / CL / Vss / clearance / Vd: rat plasma; for bioavailability: read-out: Bioavailability for oral administration; for CL / Vss: oral; for Vd: read-out: Vss
# Procedure: Female CD rats (from 200 to 250 g body weight) were obtained from Charles River Canada Inc. (St. Constant, Quebec, Canada). The animals were kept 4 per cage with an air filter cover under light (12 h light/dark cycle, light on at 06 h 00) and temperature (22°±1° C.)-controlled environment. All manipulations with the animals were performed under a sterilized laminar hood. The animals had ad libitum access to Purina rat chow (Pro Lab PMH 4018, Trademark of Agway, Syracuse, N.Y.) and water. The animal studies were conducted according to the “Guidelines for Care and Use of Experimental Animals”.
# For Amlexanox salt the dosing solution was prepared by dissolving 20 mg of Amlexanox in equi-molar NaOH solution and then, equilibrated with 1M Tris-HCl pH 7.4. For Amlexanox acid the dosing solution was prepared by simple suspending 20 mg of Amlexanox in 1% methyl cellulose in water.
# Amlexanox dosing solution (20 mg/mL) was administered i.v. and orally in normal rats (four animals in each group) at doses of 10, 25, 50, 100 and 200 mg/kg. After various time intervals (30 min and 1, 3, 6, 10 and 24 h) post-injection, blood was collected from eye vein of animals. Then, blood was immediately centrifuged, and plasma was separated. The plasma samples were immediately frozen in dry ice and stored at −80° C. until further use.
# (§1) The defrosted plasma samples were centrifuged at 2000 g for 5 min, and aliquots (10 μL) of each sample were transferred into 1.5-ml plastic tubes. The samples were diluted with phosphate buttered saline (PBS) in various amounts of times and aliquots of 100 μL were transferred into the other 1.5-ml plastic tubes. The samples were extracted with 1 mL of 100% acetonitrile for 10 min on 180° rotator. Then, the tubes were centrifuged at 10,000 g for 15 min.
# (§2) The supernatant was separated to glass tubes and evaporated in a stream of nitrogen at […]. until dryness. The dried samples were kept at −20° C. until HPLC analysis. The samples were reconstituted in 100 μL of mobile phase analyze before analyze by HPLC.
# (§3) The samples were analysed by HPLC using 250×4.6 mm, Phenomenex C18 Luna, 5 micron column, 1 mL/min flow rate of mobile phase 73% of 25 mM sodium phosphate pH 7.5 and 27% acetonitrile; fluorescent deyection λexcitation=348 nm, λemission=404 nm.
# The concentrations of Amlexanox in samples were determined by comparison with calibration curve obtained from spiked rat plasma samples using the same analytical method. The areas under the curves (AUC) of Amlexanox were calculated by trapezoidal method.
# [2] = Pharmacokinetics in normal dogs; format: in vivo, dog (Canis familiaris); conditions: 10 mg/kg
# Procedure: Experiments were performed in 6 male Beagle dogs (Canis familiaris) (from 8 to 14 kg body weight, 2 to 3 years of age). The animals had ad libitum access to tap water. Commercial dog chow was provided to the animals once daily during a 2-hour feeding period.
# Dosing solution of amlexanox salt was prepared by simple dissolving of amlexanox salt in water. Dosing solution of amlexanox acid was prepared suspending of amlexanox acid in 0.5% methyl cellulose.
# Amlexanox acid and Na salt forms were orally administered by gavage in dogs (three animals in each group) at doses of 10 mg/kg. Amlexanox tablets L and CP, prepared according to Example 13, were administered to dogs orally at doses of 10 mg/kg. After various time intervals (pre-dose, 15, 30 min and 1, 2, 3, 6, 8, 12, 24 and 48 h) post-injection, blood was collected from the jugular vein of animals. Then, blood was immediately centrifuged, and plasma was separated. The plasma samples were immediately frozen in dry ice and stored at −80° C. until further use.
# as §1, with “PBS” for “phosphate buttered saline (PBS)”
# as §2, §3
# The concentrations of amlexanox in samples were determined by comparison with calibration curve obtained from spiked dog plasma samples using the same analytical method. The areas under the curves (AUC) of amlexanox were calculated by trapezoidal method.
# [3] = tested on: CSML100 cells; assay: S100A4-positive lung metastasis tumor model, alone or in combinations (Example 25); format: in vivo, mouse; conditions: CSML100 i.v. in A/J mice, 10 days, mean±SEM
# Procedure: Amlexanox solution for injections was prepared according to the Example 4. […] The animals were then divided randomly into 9 groups (n=9 except for control group): 1) intact control (n=13, saline); 2) Amlexanox (i.v. 100 mg/kg); 3) Amlexanox ([…]. 3 mg/kg); 5) Amlexanox ([…]. […] 10 mg/kg). […] The treatments were started on the day following the tumor cell implantation and continued for 10 consecutive days. […] The animal body weight was recorded as an index of treatment toxicity during the experiment. […] The data are expressed as mean±SEM for the number of metastatic sites on the lung surface.
# [4] = po, 10 mg/kg, acid suspended in 1% methyl cellulose
# [5] = po, 25 mg/kg, acid suspended in 1% methyl cellulose
# [6] = po, 50 mg/kg, acid suspended in 1% methyl cellulose
# [7] = po, 100 mg/kg, acid suspended in 1% methyl cellulose
# [8] = po, 200 mg/kg, acid suspended in 1% methyl cellulose
# [9] = acid suspended in 1% methyl cellulose, 10 mg/kg
# [10] = acid suspended in 1% methyl cellulose, 25 mg/kg
# [11] = acid suspended in 1% methyl cellulose, 50 mg/kg
# [12] = acid suspended in 1% methyl cellulose, 100 mg/kg
# [13] = acid suspended in 1% methyl cellulose, 200 mg/kg
# [14] = dog plasma, oral, listed as Amlexanox Acid
# [15] = dog plasma, oral, listed as Amlexanox Na Salt, sodium salt
smiles,measurement,setting,value
"CC(C)c1ccc2oc3nc(N)c(C(=O)O)cc3c(=O)c2c1 [Amlexanox, 2-amino-7-isopropyl-1-azaxanthone-3-carboxylic acid]",AUC,[1]; [4],1050 ng·h/mL
same,Cmax,[1]; [4],370 ng/mL
same,MRT,[1]; [4],6.28 h
same,half-life,[1]; [4],4.36 h
same,bioavailability,"[1]; po, 10 mg/kg, acid, 10 mg/kg",31.5%
same,AUC,[1]; [5],1380 ng·h/mL
same,Cmax,[1]; [5],260 ng/mL
same,MRT,[1]; [5],11.3 h
same,half-life,[1]; [5],7.81 h
same,bioavailability,"[1]; po, 25 mg/kg, acid, 25 mg/kg",2.9%
same,AUC,[1]; [6],2380 ng·h/mL
same,Cmax,[1]; [6],580 ng/mL
same,MRT,[1]; [6],8.43 h
same,half-life,[1]; [6],5.84 h
same,bioavailability,"[1]; po, 50 mg/kg, acid, 50 mg/kg",1.1%
same,AUC,[1]; [7],8830 ng·h/mL
same,Cmax,[1]; [7],1170 ng/mL
same,MRT,[1]; [7],8.7 h
same,half-life,[1]; [7],6.04 h
same,bioavailability,"[1]; po, 100 mg/kg, acid, 100 mg/kg",2.2%
same,AUC,[1]; [8],18600 ng·h/mL
same,Cmax,[1]; [8],7000 ng/mL
same,MRT,[1]; [8],5.32 h
same,half-life,[1]; [8],3.68 h
same,bioavailability,"[1]; po, 200 mg/kg, acid, 200 mg/kg",2.5%
same,CL,[1]; [9],158 mL/min/kg
same,Vss,[1]; [9],59.8 L/kg
same,CL,[1]; [10],301.7 mL/min/kg
same,Vss,[1]; [10],204 L/kg
same,CL,[1]; [11],350.2 mL/min/kg
same,Vss,[1]; [11],177.2 L/kg
same,CL,[1]; [12],188.3 mL/min/kg
same,Vss,[1]; [12],98.5 L/kg
same,CL,[1]; [13],89.5 mL/min/kg
same,Vss,[1]; [13],28.5 L/kg
same,AUC,[2]; [14],7600 ng·h/mL
same,CL,[2]; [14],21.7 mL/min/kg
same,Cmax,[2]; [14],3400 ng/mL
same,Vss,[2]; [14],4.3 L/kg
same,half-life,"[2]; male, Beagle, dog, plasma, po",2.3 h
same,MRT,"[2]; male, Beagle, dog, plasma, po, read-out: MRT",3.3 h
same,Lung Metastasis Number per Animal,[3]; Amlexanox i.v. 100 mg/kg daily,29.6 ± 3.89
same,Lung Metastasis Number per Animal,[3]; Amlexanox p.o. 200 mg/kg daily,26.2 ± 4.16
"CC(C)c1ccc2oc3nc(N)c(C(=O)O)cc3c(=O)c2c1 [Amlexanox (salt), 2-amino-7-isopropyl-1-azaxanthone-3-carboxylic acid sodium salt]",clearance,"[1]; iv, I.V., 10 mg/kg",50 mL/min/kg
same,Vd,"[1]; iv, I.V., 10 mg/kg",2.26 L/kg
same,clearance,"[1]; iv, I.V., 25 mg/kg",8.83 mL/min/kg
same,Vd,"[1]; iv, I.V., 25 mg/kg",0.99 L/kg
same,clearance,"[1]; iv, I.V., 50 mg/kg",1.67 mL/min/kg
same,Vd,"[1]; iv, I.V., 50 mg/kg",0.1 L/kg
same,clearance,"[1]; iv, I.V., 100 mg/kg",2.17 mL/min/kg
same,Vd,"[1]; iv, I.V., 100 mg/kg",0.14 L/kg
same,clearance,"[1]; iv, I.V., 200 mg/kg",4.5 mL/min/kg
same,Vd,"[1]; iv, I.V., 200 mg/kg",0.51 L/kg
same,AUC,"[1]; iv, 10 mg/kg, I.V.",3300 ng·h/mL
same,Cmax,"[1]; iv, 10 mg/kg, I.V.",4500 ng/mL
same,MRT,"[1]; iv, 10 mg/kg, I.V.",0.75 h
same,half-life,"[1]; iv, 10 mg/kg, I.V.",0.52 h
same,AUC,"[1]; iv, 25 mg/kg, I.V.",47000 ng·h/mL
same,Cmax,"[1]; iv, 25 mg/kg, I.V.",33400 ng/mL
same,MRT,"[1]; iv, 25 mg/kg, I.V.",1.87 h
same,half-life,"[1]; iv, 25 mg/kg, I.V.",1.29 h
same,AUC,"[1]; iv, 50 mg/kg, I.V.",217000 ng·h/mL
same,Cmax,"[1]; iv, 50 mg/kg, I.V.",165000 ng/mL
same,MRT,"[1]; iv, 50 mg/kg, I.V.",1.05 h
same,half-life,"[1]; iv, 50 mg/kg, I.V.",0.69 h
same,AUC,"[1]; iv, 100 mg/kg, I.V.",398000 ng·h/mL
same,Cmax,"[1]; iv, 100 mg/kg, I.V.",216000 ng/mL
same,MRT,"[1]; iv, 100 mg/kg, I.V.",1.14 h
same,half-life,"[1]; iv, 100 mg/kg, I.V.",0.75 h
same,AUC,"[1]; iv, 200 mg/kg, I.V.",739000 ng·h/mL
same,Cmax,"[1]; iv, 200 mg/kg, I.V.",466000 ng/mL
same,MRT,"[1]; iv, 200 mg/kg, I.V.",1.89 h
same,half-life,"[1]; iv, 200 mg/kg, I.V.",1.31 h
same,AUC,"[1]; po, 10 mg/kg, salt solution",1040 ng·h/mL
same,Cmax,"[1]; po, 10 mg/kg, salt solution",190 ng/mL
same,MRT,"[1]; po, 10 mg/kg, salt solution",8.29 h
same,half-life,"[1]; po, 10 mg/kg, salt solution",5.76 h
same,bioavailability,"[1]; po, 10 mg/kg, salt, 10 mg/kg",31.2%
same,AUC,"[1]; po, 25 mg/kg, salt solution",2200 ng·h/mL
same,Cmax,"[1]; po, 25 mg/kg, salt solution",550 ng/mL
same,MRT,"[1]; po, 25 mg/kg, salt solution",7.71 h
same,half-life,"[1]; po, 25 mg/kg, salt solution",5.33 h
same,bioavailability,"[1]; po, 25 mg/kg, salt, 25 mg/kg",4.7%
same,AUC,"[1]; po, 50 mg/kg, salt solution",4470 ng·h/mL
same,Cmax,"[1]; po, 50 mg/kg, salt solution",1590 ng/mL
same,MRT,"[1]; po, 50 mg/kg, salt solution",7.28 h
same,half-life,"[1]; po, 50 mg/kg, salt solution",5.04 h
same,bioavailability,"[1]; po, 50 mg/kg, salt, 50 mg/kg",2.1%
same,AUC,"[1]; po, 100 mg/kg, salt solution",41200 ng·h/mL
same,Cmax,"[1]; po, 100 mg/kg, salt solution",19800 ng/mL
same,MRT,"[1]; po, 100 mg/kg, salt solution",2.05 h
same,half-life,"[1]; po, 100 mg/kg, salt solution",1.42 h
same,bioavailability,"[1]; po, 100 mg/kg, salt, 100 mg/kg",10.3%
same,AUC,"[1]; po, 200 mg/kg, salt solution",200000 ng·h/mL
same,Cmax,"[1]; po, 200 mg/kg, salt solution",95200 ng/mL
same,MRT,"[1]; po, 200 mg/kg, salt solution",1.77 h
same,half-life,"[1]; po, 200 mg/kg, salt solution",1.23 h
same,bioavailability,"[1]; po, 200 mg/kg, salt, 200 mg/kg",27.1%
same,CL,"[1]; salt solution, 10 mg/kg",160 mL/min/kg
same,Vss,"[1]; salt solution, 10 mg/kg",79.8 L/kg
same,CL,"[1]; salt solution, 25 mg/kg",190 mL/min/kg
same,Vss,"[1]; salt solution, 25 mg/kg",87.7 L/kg
same,CL,"[1]; salt solution, 50 mg/kg",187 mL/min/kg
same,Vss,"[1]; salt solution, 50 mg/kg",81.4 L/kg
same,CL,"[1]; salt solution, 100 mg/kg",40.5 mL/min/kg
same,Vss,"[1]; salt solution, 100 mg/kg",4.99 L/kg
same,CL,"[1]; salt solution, 200 mg/kg",8.3 mL/min/kg
same,Vss,"[1]; salt solution, 200 mg/kg",0.89 L/kg
same,AUC,[2]; [15],29000 ng·h/mL
same,CL,[2]; [15],5 mL/min/kg
same,Cmax,[2]; [15],10700 ng/mL
same,MRT,[2]; [15],2.5 h
same,Vss,[2]; [15],0.9 L/kg
same,t1/2,[2]; [15],1.8 h

# Reference: patent publication US7772255B2, “Method of treating tumors with azaxanthones” (Supratek Pharma, Inc., priority 2005, dated 2010)
